Source: patent US8273718B2, “Composition for prevention or treatment of bone metabolism disorder comprising D-pinitol as an active ingredient” (Solgent Co., priority 2007, dated 2012)

Legend:
[1] = test system: Raw264.7 cells; test: Osteoclastogenesis of Raw264.7 cells, TRAP solution assay; format: cell-based; conditions: RankL
Description: Raw264.7 cells were cultured in α-MEM (α-minimal essential medium) containing 10% FBS (fetal bovine serum). In the experiment of examining osteoclastogenesis, cells were adjusted to 2.0×10^3 cells/200 μl on 96-well plate and incubated with 200 ng/ml of sRANKL. TRAP (tartrate resistant acid phophatase) staining and TRAP solution assay were carried out at forth day after culturing cells for 3 days with treatment of D-pinitol at concentrations of 1, 3.5, 7, 12.5, 25 and 50 mM respectively. Cells were fixed for TRAP staining and TRAP solution assay. TARP positive multinuclear (more than 3 nuclei) cells were counted as an osteoclast-like cell. Cells were observed using Leica DM IRM microscope. TRAP solution assay of TRAP positive cells were carried out according to the following method. Medium was removed, 100 μl of 10% formalin was added and incubated for 10 min at room temperature. After 100 μl of methanol/acetone was added, incubated for 1 min at room temperature, and then dried. TRAP substrate solution comprising a tablet of pNPP (p-nitrophenylphosphate) dissolved in 20 ml of TRAP buffer (pH 5.2) was added into and incubated for 20-30 min at 37° C. 100 μl of TRAP substrate solution was transferred to a new 96-well plate in which 50 μl of 1N NaOH was contained. Finally, OD (optical density) value was measured at 405 nm. […]

[2] = test system: Raw264.7 cells; test: Cytotoxicity of D-pinitol on Raw264.7 cells (cell number count); format: cell-based; conditions: 0-50 mM, cell number counted for 3 days at 24 hrs intervals; up to maximum 50 mM
Description: To verify the cytotoxicity of D-pinitol to Raw264.7 cell, Raw264.7 cells were grown on 96-well plate until 0.5×10^3 cells/200 μl. Cells were cultured for 3 days while treating with D-pinitol at concentrations of 1, 3.5, 7, 12.5, 25 and 50 mM respectively. Cell number increased during 3 days of culture was counted to determine the cytotoxicity of added compounds.
The present inventors examined the cytotoxicity of D-pinitol at various concentrations. Influence of D-pinitol to cell proliferation was examined by treating Raw264.7 cells with various concentrations of D-pinitol. Osteoclast progenitor cell line, Raw264.7 cells were cultured and treated with D-pinitol in a range of 0-50 mM concentration. The number of survived cells was counted for 3 days at 24 hrs intervals.

[3] = test system: bone marrow-derived osteoclast; test: Osteoclast differentiation in respective stages of osteoclastogenesis; format: cell-based, mouse; conditions: from 2 days after culture, not less than 25 mM
Description: To examine the effect of D-pinitol on osteoclast at each stage of culturing, D-pinitol was added to the culture media of osteoclast with various concentrations. D-pinitol-treated osteoclast was separated at each cultured time and then amount of differentiated osteoclast was analyzed using TRAP solution assay. To analyze the effect of D-pinitol on respective stages of differentiation of bone marrow-derived osteoclast, the differentiation state of osteoclast, which has been cultured in the presence of various concentration of D-pinitol, was estimated in a time-dependent course. […] It could be also understood that D-pinitol affects in the cell-fusion stage of the osteoclastogenesis.

[4] = test system: bone marrow-derived osteoclast; test: Bone resorption-degradative potential of osteoclast on bone fragments (toluidine blue staining); format: cell-based, mouse
Description: To examine the effect of D-pinitol on degradative potential of osteoclast in the bone resorption process, fragment of tooth bone was added in 96-well plate and then bone marrow cells were cultured until 1.0×10^5 cells/200 μl. For the differentiation of osteoclast, 50 ng/ml of M-CSF and 200 ng/ml of sRANKL were added. D-pinitol was added to the media in a concentration-dependent manner and incubated for 4 days. Where the differentiation of osteoclast was observed after completing the culture, cells were removed in bone fragment and observed in microscope via 1% toluidine blue staining. To investigate the effect of D-pinitol on the bone resorption-degradative potential of osteoclast, cells were treated with D-pinitol in the range of 0-50 mM during the differentiation into osteoclast on bone fragments which were obtained from human teeth.

[5] = test system: Raw264.7 cells; test: Osteoclastogenesis of Raw264.7 cells, TRAP staining; format: cell-based
Description: Raw264.7 cells were cultured in α-MEM (α-minimal essential medium) containing 10% FBS (fetal bovine serum). In the experiment of examining osteoclastogenesis, cells were adjusted to 2.0×10^3 cells/200 μl on 96-well plate and incubated with 200 ng/ml of sRANKL. TRAP (tartrate resistant acid phophatase) staining and TRAP solution assay were carried out at forth day after culturing cells for 3 days with treatment of D-pinitol at concentrations of 1, 3.5, 7, 12.5, 25 and 50 mM respectively. Cells were fixed for TRAP staining and TRAP solution assay. TARP positive multinuclear (more than 3 nuclei) cells were counted as an osteoclast-like cell. Cells were observed using Leica DM IRM microscope. For cytochemical staining of TRAP positive cell, medium was removed. After that, 100 μl of 10% formalin was added to cells and incubated for 10 min at room temperature. 100 μl of methanol/acetone was added and incubated for 1 min at room temperature. Cells were stained with 10 ml of TRAP buffer (Tris-HCl, pH 4.5, EDTA), naphthol AS phosphate (substrate, Sigma #N-4875) and 5 mg of Fast Red Violet dye (Sigma, F-1625). 1 mg of naphthol AS phosphate dissolved in […] of N, N-dimethyl formide (DMF, Sigma #319937) was used. The reaction was performed for 10-30 min and then red color was observed. Where red color is clearly observed, it was washed with flowing water and dried. […] Raw264.7 cell line was treated with 200 ng/ml of RankL for 4 days. […] To quantitate inhibitory activity of D-pinitol in osteoclastogenesis of Raw264.7 cells, multinucleate cell number was measured via TRAP staining according to various treatment concentration of D-pinitol. […] Therefore, it could be understood that D-pinitol was a substance to inhibit osteoclastogenesis of Raw264.7 cell. D-pinitol inhibited osteoclastogenesis almost 100% at a concentration of 50 mM.

[6] = test system: bone marrow-derived osteoclast; test: Differentiation of bone marrow-derived osteoclast, TRAP solution assay; format: cell-based, mouse
Description: TRAP solution assay of TRAP positive cells were carried out according to the following method. Medium was removed, 100 μl of 10% formalin was added and incubated for 10 min at room temperature. After 100 μl of methanol/acetone was added, incubated for 1 min at room temperature, and then dried. TRAP substrate solution comprising a tablet of pNPP (p-nitrophenylphosphate) dissolved in 20 ml of TRAP buffer (pH 5.2) was added into and incubated for 20-30 min at 37° C. 100 μl of TRAP substrate solution was transferred to a new 96-well plate in which 50 μl of 1N NaOH was contained. Finally, OD (optical density) value was measured at 405 nm. To extract mouse bone marrow cells, thighbone and shinbone of male C57BL/6 mouse at 3-4 weeks of age were aseptically enucleated and their soft tissues were eliminated. Both end of long bone was cut in extracted bone tissues and then bone marrow cells were collected by injecting α-MEM/10% FBS into bone marrow cavity at one end using a 26G injection syringe. Collected bone marrow cells were subjected to 5 ng/ml of M-CSF and incubated for 16 hrs. Unattached cells on plate bottom were harvested. […] To determine inhibitory effect of D-pinitol on osteoclastogenesis, osteoclast derived from bone marrow primary cells was analyzed using TRAP solution assay.

[7] = test system: co-culture of osteoblast and bone marrow-derived osteoclast; test: Osteoclastogenesis in co-culture of osteoblast and bone marrow cells, TRAP staining; format: cell-based, mouse
Description: To prepare a primary osteoblast of mice, frontal bone and parietal bone of fetal mice at 1 day of age were aseptically enucleated. After washing enucleated bone tissue with PBS solution, it was subsequently treated with mixed-enzyme solution (0.2% collagenase and 0.1% dispase) 6 times at 20 min intervals. Cells having the property of osteoblast were harvested and then washed with culture solution. Washed cells were cultured in α-MEM containing 10% serum for 3 days and used as a primary osteoblast. Co-culture was carried out in a manner that 1.0×10^4 cells/200 μl of osteoblast and 1.0×10^5 cells of bone marrow cells were cultured on 96-well plate with vitamin D3 (10^−6M) and prostagrandin E2 (PGE2, 10^−8M) for 5 days. After culturing, TRAP staining was performed. Osteoblast was extracted from mouse skull and then co-cultured with hematopoietic stem cells of bone marrow in order to induce the differentiation of osteoclast. The effect of D-pinitol on osteoclastogenesis was investigated by treating cells with D-pinitol with a range of 0-50 mM during the differentiation-inducing process.

[8] = test system: bone marrow-derived hematopoietic stem cells; test: Cytotoxicity of D-pinitol on bone marrow hematopoietic stem cells (CCK8); format: cell-based, mouse
Description: To investigate the cytotoxicity of D-pinitol to a bone marrow cell, bone marrow cells were adjusted to 1.0×10^5 cells/200 μl on 96-well plate and co-cultured with 50 ng/ml of M-CSF. Then, cultured cells were grown for 4 days while treating with D-pinitol at concentrations of 1, 3.5, 7, 12.5, 25 and 50 mM respectively. Cytotoxicity was measured using CCK8 kit (Cell Counting Kit-8, Dojindo, Japan). 10% CCK8 solution was added to culture solutions according to each culture time and incubated for 2 hrs at 37° C. After culturing, an absorbance was measured at 450 nm using Microplate reader (Bio-Rad).
To extract mouse bone marrow cells, thighbone and shinbone of male C57BL/6 mouse at 3-4 weeks of age were aseptically enucleated and their soft tissues were eliminated. Both end of long bone was cut in extracted bone tissues and then bone marrow cells were collected by injecting α-MEM/10% FBS into bone marrow cavity at one end using a 26G injection syringe. Collected bone marrow cells were subjected to 5 ng/ml of M-CSF and incubated for 16 hrs. Unattached cells on plate bottom were harvested.
The instant inventors examined the cytotoxicity of D-pinitol on hematopoietic stem cells. […] After that, the proliferation-induced cells were treated with D-pinitol at a range of 0-50 mM and the effect of D-pinitol on cell proliferation was determined by measuring CCK8 enzyme activity. […]

[9] = test system: bone marrow-derived osteoclast; test: Differentiation of bone marrow-derived osteoclast, TRAP staining; format: cell-based, mouse
Description: For cytochemical staining of TRAP positive cell, medium was removed. After that, 100 μl of 10% formalin was added to cells and incubated for 10 min at room temperature. 100 μl of methanol/acetone was added and incubated for 1 min at room temperature. Cells were stained with 10 ml of TRAP buffer (Tris-HCl, pH 4.5, EDTA), naphthol AS phosphate (substrate, Sigma #N-4875) and 5 mg of Fast Red Violet dye (Sigma, F-1625). 1 mg of naphthol AS phosphate dissolved in […] of N, N-dimethyl formide (DMF, Sigma #319937) was used. The reaction was performed for 10-30 min and then red color was observed. Where red color is clearly observed, it was washed with flowing water and dried. […] To extract mouse bone marrow cells, thighbone and shinbone of male C57BL/6 mouse at 3-4 weeks of age were aseptically enucleated and their soft tissues were eliminated. Both end of long bone was cut in extracted bone tissues and then bone marrow cells were collected by injecting α-MEM/10% FBS into bone marrow cavity at one end using a 26G injection syringe. Collected bone marrow cells were subjected to 5 ng/ml of M-CSF and incubated for 16 hrs. Unattached cells on plate bottom were harvested. For the induction of the differentiation of bone marrow-derived osteoclast, bone marrow cells of 1.0×10^5 cells per well were cultured with α-MEM/10% FBS in the presence of 200 ng/ml of sRANKL and 50 ng/ml of M-CSF. D-pinitol was added to media at various concentrations during culture. Three experiments were carried out at each concentration and media were replaced at third day after grown in complete media containing sRANKL, M-CSF and D-pinitol. […] To investigate the effect of D-pinitol on the osteoclast differentiation from bone marrow-derived monocyte, hematopoietic stem cells were extracted from bone marrow and activated for 1 day by M-CSF (5 ng/ml), resulting in induction of the differentiation into mononuclear cells. […] To quantitate the effect of D-pinitol in osteoclatogenesis of bone marrow-derived monocyte, osteoclast cell number within sample was measured using TRAP staining. […]

With COC1C(O)C(O)C(O)C(O)C1O [D-pinitol] the “inhibitory activity in TRAP solution assay versus counting multinucleate cell number” value [1] was “relatively weaker”, the Raw264.7 cell cytotoxicity [2] was “not observed” and the “differentiation of bone marrow-derived osteoclast” value [3] was “remarkably inhibited”. For the same compound, the “bone resorption-degradative potential of osteoclast” value ([4]; 0-50 mM, increasing concentration, bone fragments from human teeth) was “remarkably decreased”, the “bone resorption-degradative potential of osteoclast” value ([4]; not less than 25 mM) was “dramatically decreased” and the inhibition at 50000 µM ([5]; Mus musculus, RAW264.7, 50 mM, multinucleate cell count by TRAP staining) was roughly 100%. The “osteoclastogenesis (TRAP staining photographs)” value ([5]; RankL 200 ng/ml, 4 days, increasing concentration up to 50 mM) was “significantly impaired”, the multinucleate cell number ([5]; RankL 200 ng/ml, increasing concentration of D-pinitol) was “significantly decreased” and the “inhibitory effect on differentiation of bone marrow-derived osteoclast” value [6] was “also observed”. The “cell number of multinucleated osteoclast” value ([7]; 0-50 mM, increasing concentration) was “significantly decreased”, the osteoclastogenesis ([7]; 50 mM) was “clearly inhibited” and the “effect on CCK8 activity” value ([8]; 0-50 mM, M-CSF 50 ng/ml) was “no effect”. For the same compound, the “influence on proliferation of hematopoietic stem cells” value ([8]; not more than 50 mM) was “no influence”, the “number of TRAP-stained osteoclast” value ([9]; 0-50 mM, RankL 200 ng/ml and M-CSF 50 ng/ml, 4 days) was “decreased in proportion to the concentration” and the inhibition at 50000 µM ([9]; Mus musculus, Osteoclast, 50 mM, bone marrow-derived monocyte, read-out: inhibition of osteoclastogenesis) was roughly 100%. The “concentration from which a remarkable decrease of multinucleate cell number was observed” value ([9]; TRAP staining count) was 25 mM.
